From patent publication US7709458B2, “Method for inhibiting cancer cell proliferation or increasing cancer cell apoptosis” (priority 2004, dated 2010)
pEC50: −log10 of the molar value.

Key:
[1] = test system: SH-SY5Y human neuroblastoma cells; assay: cells; assay type: cell-based
Protocol: Toxicity assays in human neuroblastoma cells. SH-SY5Y human neuroblastoma cells were cultured in DMEM/Ham's F-12 (1:1) media, supplemented with 10% FBS, penicillin (100 IU/ml), streptomycin (100 μg/ml), and L-glutamine (2 mM); the cell culture medium was replaced every two days. Cultures were maintained at 37° C. in 95% air-5% CO2 in a humidified incubator. A standard curve established the linear range for the assay of approximately 1000-7000 cells/well for a 96 well plate. All data reported were within this range. MTS assay concentration-response curves were performed as follows: 1800 cells/well were plated in 96 well plates. After 30 h, media was changed to include no toxicant (control) or toxicant at varying concentrations. The cells were then exposed for 48 h, the media was removed, and 100 μl minimum essential medium without phenol red and 20 μl MTS reagent were added. Cells were incubated, and 2 h later, plates were measured at 490 nm on an ELx 808 microplate reader (Bio-Tek Instruments, Winooski, Vt.). EC50 values were determined via nonlinear regression using Prism software (GraphPad, San Diego, Calif.).
Cytotoxicity tests in human neuroblastoma cells. The 3-(4,5-dimethylthiazol-2-yl)-5-(3-carboxymethoxyphenyl)-2-(4-sulfophenyl)-2H-tetrazolium (MTS) assay is a quantitative colorimetric assay for measurement of cellular proliferation, cytotoxicity and viability. MTS is converted to a formazan product only in living cells. MTS is similar to 3-(4,5-dimethylthiazol-2-yl)-2,5-diphenyltetrazolium bromide (MTT), which is widely used in cytotoxicity assays. The difference is that the formazan product for the MTS reagent is soluble in media while the MTT reagent is not.
To study the cytotoxicity of c-di-GMP in SH-SY5Y human neuroblastoma cells, increasing concentrations (0.0001-1000 μM) were added to the culture medium and cell viability was assessed by the MTS assay. […] Up to 100 μM, there was no effect on cell viability; at greater concentrations, a sharp decline in cell viability was observed.

[2] = Solubility and stability of c-di-GMP; assay type: physicochemical

## Nc1nc(=O)c2ncn([C@@H]3OC4COP(=O)(O)O[C@H]5[C@@H](O)[C@H](n6cnc7c(=O)nc(N)[nH]c76)O[C@@H]5COP(=O)(O)OC4C3O)c2[nH]1 (some centres unmarked) [c-di-GMP, Bis(3′-->5′)-cyclic diguanylic acid]
[1]
  cytotoxicity on human neuroblastoma cells: no cytotoxicity
[1]; Homo sapiens, SH-SY5Y cells, 48 hr exposure, MTS assay, read-out: EC50 for decrease of cell viability
  pEC50: 3.46
[1]; human, 48 h
  concentration with no effect on cell viability: Up to 100 μM
[2]; physiological conditions
  stability: stable
[2]; water physiological saline
  solubility: soluble
